Data set [1] can be described thus: Solubility in pharmaceutically acceptable solvents. Type of data set: physicochemical. As to conditions: in Wasser, Glycerin/Ethanol-Gemischen oder Ethanol/Wasser-Gemischen.
For data set [2] the following is noted: in Wasser und anderen pharmazeutisch annehmbaren Lösungsmitteln; cited from earlier work.

Read-outs that look alike come from different tables or passages of the source.

With Vincamin-cyclamat, the Löslichkeit result in data set [1] is listed as “ausreichend löslich”.
For `CCC12CCCN3CCc4c(n(c5ccccc45)C(O)(C(=O)OC)C1)C32` (centres unmarked) [Vincamin-Base, Vincamin], the Löslichkeit result in data set [2] is on record as “praktisch unlöslich”.

Source of the values: patent EP0061654A1, “Vincamine cyclamate, process for its preparation and medicaments containing it” (Heinrich Mack Nachf., priority 1981, dated 1982).
